Data on three substances can be found in patent publication US7799809B2, “Carboxamide compounds and their use as calpain inhibitors” (Abbott GmbH & Co. KG, priority 2006, dated 2010).

What all share (type): biochemical
For one experiment, the target named is T1, cathepsin K (Homo sapiens, UniProt P43235).
T1 construct: purchased Calbiochem 342001; host or cells: E. coli
T1 sequence (P43235 115-329): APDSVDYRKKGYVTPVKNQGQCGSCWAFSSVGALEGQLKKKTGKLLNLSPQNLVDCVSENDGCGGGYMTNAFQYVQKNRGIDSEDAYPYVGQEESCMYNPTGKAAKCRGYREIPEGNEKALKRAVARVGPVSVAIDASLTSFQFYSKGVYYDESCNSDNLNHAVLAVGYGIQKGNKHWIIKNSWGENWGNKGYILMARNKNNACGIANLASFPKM
Description: Cathepsin K enzyme inhibition in vitro (kinetic fluorescence assay). Particulars: cathepsin K activated from recombinant human procathepsin K vs calpain I.

Another experiment concerns the target T2, cathepsin B (Homo sapiens, UniProt P07858).
T2 construct: cathepsin B—isolated from human liver (Calbiochem #219362); purchased Calbiochem 219362; host or cells: human liver (tissue-derived)
Description: Cathepsin B enzyme inhibition in vitro (kinetic fluorescence assay). To be noted: cathepsin B isolated from human liver vs calpain I. Summed up:
(§1)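 Cathepsin B (0.25 nM, human liver) with 100 μM Z-Phe-Arg-AMC; L (1 nM, human liver) with 2 μM Z-Phe-Arg-AMC; S (0.5 nM, recombinant) with 20 μM Z-Val-Val-Arg-AMC. pH 6.0 MES buffer, 2.5 mM L-cysteine, room temperature. Kinetic fluorescence (ex 390/em 460 nm); apparent Ki from IC50 by Cheng-Prusoff.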

Another experiment concerns the target T3, cathepsin L (Homo sapiens, UniProt P07711).
T3 construct: cathepsin L—isolated from human liver (Calbiochem #219402); purchased Calbiochem 219402; host or cells: human liver (tissue-derived)
Description: Cathepsin L enzyme inhibition in vitro (kinetic fluorescence assay). To be noted: cathepsin L isolated from human liver vs calpain I. Summed up: as §1

A further experiment has as its target T4, cathepsin S (Homo sapiens, UniProt P25774).
T4 construct: purchased Calbiochem 219343; host or cells: E. coli
As to the kind of experiment: Cathepsin S enzyme inhibition in vitro (kinetic fluorescence assay). Particulars: recombinant human cathepsin S vs calpain I. Summed up: as §1

T4 sequence (P25774 115-331): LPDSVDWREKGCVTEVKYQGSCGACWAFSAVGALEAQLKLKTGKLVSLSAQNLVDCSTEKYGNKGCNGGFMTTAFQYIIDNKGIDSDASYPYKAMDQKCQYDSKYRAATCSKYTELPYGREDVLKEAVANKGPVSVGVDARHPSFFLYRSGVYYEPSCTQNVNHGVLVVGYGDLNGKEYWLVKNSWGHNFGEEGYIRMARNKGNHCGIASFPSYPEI
T3 sequence (P07711 114-333): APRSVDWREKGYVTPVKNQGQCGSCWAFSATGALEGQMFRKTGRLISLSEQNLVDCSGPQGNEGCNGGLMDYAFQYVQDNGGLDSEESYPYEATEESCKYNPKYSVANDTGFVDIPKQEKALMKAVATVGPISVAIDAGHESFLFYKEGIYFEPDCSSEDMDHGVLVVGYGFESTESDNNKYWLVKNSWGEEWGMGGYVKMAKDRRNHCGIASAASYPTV

Consider “N-(3-Amino-1-{[4-(methyloxy)phenyl]methyl}-2,3-dioxopropyl)-2-{3-[3-(trifluoromethyl)phenyl]-1H-pyrazol-1-yl}pyridine-3-carboxamide [Example 126]”, for which the “Sel cat. K: Ki(cathepsin K)/Ki(calpain) ratio” value at cathepsin K is listed as “++ (++ means a Ki(cathepsin K)/Ki(calpain) ratio of ≧30)”. For the same substance, the “Sel cat. B: Ki(cathepsin B)/Ki(calpain) ratio” value on cathepsin B is given as “++ (++ means a Ki(cathepsin B)/Ki(calpain) ratio of ≧30)”. The “Sel cat. L: Ki(cathepsin L)/Ki(calpain) ratio” value at cathepsin L is reported as “++ (++ means a Ki(cathepsin L)/Ki(calpain) ratio of ≧50)”. The “Sel cat. S: Ki(cathepsin S)/Ki(calpain) ratio” value at cathepsin S was “++ (++ means a Ki(cathepsin S)/Ki(calpain) ratio of ≧100)”.
On to “N-[3-Amino-2,3-dioxo-1-(phenylmethyl)propyl]-2-[3-(3,5-dichlorophenyl)-1H-pyrazol-1-yl]pyridine-3-carboxamide [Example 89]”, for which the “Sel cat. K: Ki(cathepsin K)/Ki(calpain) ratio” value on cathepsin K is “+ (+ means 10≦Ki(cathepsin K)/Ki(calpain)<30)”. In addition, the “Sel cat. B: Ki(cathepsin B)/Ki(calpain) ratio” value at cathepsin B is on record as “+ (+ means 10≦Ki(cathepsin B)/Ki(calpain)<30)”. The “Sel cat. L: Ki(cathepsin L)/Ki(calpain) ratio” value at cathepsin L is reported as “++ (++ means a Ki(cathepsin L)/Ki(calpain) ratio of ≧50)”. For the same substance, the “Sel cat. S: Ki(cathepsin S)/Ki(calpain) ratio” value on cathepsin S is reported as “++ (++ means a Ki(cathepsin S)/Ki(calpain) ratio of ≧100)”.
Regarding “N-{3-Amino-1-[(4-fluorophenyl)methyl]-2,3-dioxopropyl}-2-[3-(2-chloro-3-fluorophenyl)-1H-pyrazol-1-yl]pyridine-3-carboxamide [Example 154]”, the “Sel cat. K: Ki(cathepsin K)/Ki(calpain) ratio” value on cathepsin K was “++ (++ means a Ki(cathepsin K)/Ki(calpain) ratio of ≧30)”. At cathepsin B, the “Sel cat. B: Ki(cathepsin B)/Ki(calpain) ratio” value is listed as “++ (++ means a Ki(cathepsin B)/Ki(calpain) ratio of ≧30)”. Moreover, the “Sel cat. L: Ki(cathepsin L)/Ki(calpain) ratio” value at cathepsin L is “++ (++ means a Ki(cathepsin L)/Ki(calpain) ratio of ≧50)”. For the same substance, the “Sel cat. S: Ki(cathepsin S)/Ki(calpain) ratio” value on cathepsin S is reported as “++ (++ means a Ki(cathepsin S)/Ki(calpain) ratio of ≧100)”.
